Tests used:
RIPK1 = target: T1, RIPK1 (Homo sapiens, UniProt Q13546); conditions: background statement, WO 2021/048162 A1; cited from earlier work
T1 sequence (Q13546 1-671): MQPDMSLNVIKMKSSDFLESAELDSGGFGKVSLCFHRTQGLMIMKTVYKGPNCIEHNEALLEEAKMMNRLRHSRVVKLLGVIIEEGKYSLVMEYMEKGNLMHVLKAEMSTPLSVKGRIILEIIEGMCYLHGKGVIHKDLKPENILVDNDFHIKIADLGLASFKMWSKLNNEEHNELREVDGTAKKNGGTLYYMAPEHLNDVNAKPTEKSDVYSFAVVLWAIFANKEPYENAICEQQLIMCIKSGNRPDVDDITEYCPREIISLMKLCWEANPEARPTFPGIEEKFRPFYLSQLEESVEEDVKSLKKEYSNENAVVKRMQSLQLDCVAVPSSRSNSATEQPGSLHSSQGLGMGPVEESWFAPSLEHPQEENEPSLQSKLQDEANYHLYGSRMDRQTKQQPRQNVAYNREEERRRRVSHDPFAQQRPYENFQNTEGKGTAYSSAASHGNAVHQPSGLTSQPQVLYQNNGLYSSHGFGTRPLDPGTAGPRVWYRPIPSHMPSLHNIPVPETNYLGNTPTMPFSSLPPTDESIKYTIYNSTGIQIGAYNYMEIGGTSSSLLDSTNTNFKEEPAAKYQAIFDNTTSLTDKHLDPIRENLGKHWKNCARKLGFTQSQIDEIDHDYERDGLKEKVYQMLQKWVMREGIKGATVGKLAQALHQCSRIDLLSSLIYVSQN

[1] = cited from earlier work
NIH3T3 cells = experiment: TNFα + zVAD induced RIPK1-dependent necroptosis, FACS (7-AAD / Annexin V); type: cell-based
Protocol: (§1) The commercially available drug Necrostatin-1 (Nec-1s, 20 µM) acted as an internal control (inhibitor) of RIPK1-mediated cell death. All drugs were added 30 min before TNFα stimulation. RIPK1-mediated cell death was quantified by FACS analysis using 7-amino-actinomycin D and phosphatidylserine accessibility (Annexin V staining) as markers. […] The commercially available drug Necrostatin-1 (Nec-1s, 20 µM) acted as an internal control (inhibitor) of RIPK1-mediated cell death. All drugs were added 30 min before TNFα stimulation. RIPK1-mediated cell death was quantified by FACS analysis using 7-amino-actinomycin D and phosphatidylserine accessibility (Annexin V staining) as markers. […] All drugs were added 30 min before TNFα stimulation. […] All drugs were added 30 min before TNFα stimulation. Necroptotic cell death was quantified by FACS analysis using 7-amino-actinomycin D and phosphatidylserine accessibility (Annexin V staining) as markers.
(§2) The known RIPK1 kinase inhibitor Nec-1s was used as a control.
(§3) RIPK3-expressing NIH3T3 cells and L929 fibroblasts were obtained from the American Type Culture Collection (Manassas, VA, USA). Both cell lines were cultured in DMEM (Gibco, Thermo Fisher Scientific, Schwerte, Germany) supplemented with 10% (v/v) FCS (PAN-Biotech GmbH, Aidenbach, Germany), 100 U/ml penicillin, and 100 µg/ml streptomycin (both from Merck Millipore GmbH, Darmstadt, Germany). The cell lines were cultured in a humidified 5% CO2 atmosphere at 37°C. Negativity for mycoplasma was routinely checked using a MycoAlert Mycoplasma Detection Kit (Lonza, Cologne, Germany). Unless stated otherwise, assays were conducted using 1x 10^5 cells in 1 ml of medium.
(§4) Recombinant purified TNFα (# 570104) was purchased from BioLegend (Amsterdam, the Netherlands). The pan-caspase inhibitor zVAD-fmk (# 4026865) was purchased from Bachem (Weil am Rhein, Germany), Nec-1s (2263-1-BV) was obtained from BioCat (Heidelberg, Germany); primidone (# P7295) was purchased from Sigma-Aldrich Chemie GmbH (Taufkirchen, Germany). Polyethylenglycol (PEG300, # 202371) was purchased from Merck Millipore, Dimethyl sulfoxide (DMSO, A3672) was obtained from AppliChem (via Thermo Fisher Scientific).
(§5) For testing the ability of primidone to protect against RIPK1-driven cell death, cells were kept in 1 ml medium. To test 1 mM, 0.75 mM and 0.5 mM primidone in PEG300, we pipetted 15.6 µl, 11.7 µl and 7.8 µl, respectively, of the 64.144 mM stock solution to the 1 ml of the medium that contains the cells. […]
(§6) Phosphatidylserine exposure to the outer cell membrane of apoptotic cells or inner plasma membrane of necrotic cells and incorporation of 7-amino-actinomycin D (7-AAD) into necrotic cells was quantified by flow cytometry analysis. […]

L929 fibroblasts = experiment: as above; type: cell-based
Protocol: as §1, §2, §3, §4, §5, §6

[2] = primidone solubilized in PEG300, control Nec-1s 20 µM

CCC1(c2ccccc2)C(=O)NCNC1=O [primidone, 5-Ethyl-5-phenyl-1,3-diazinane-4,6-dione]
activation of RIPK1 by phosphorylation or autophosphorylation (RIPK1): prevents the activation of RIPK1 | soluble in dimethyl sulfoxide (DMSO) in amounts of up to ([1]; DMSO): up to 44 mg/ml | soluble in ethanol up to a concentration ([1]; ethanol): about 3 mg/ml | soluble in water up to a concentration ([1]; water): about 0.5 mg/ml | protection from RIPK1-mediated necroptosis (NIH3T3 cells; 100 ng/ml TNFα + 25 µM zVAD, 24 h, 37°C, equimolar primidone (0.5-1 mM) dissolved in DMSO or PEG300, added 30 min before TNFα): able to protect | protective effects compared with Nec-1s (NIH3T3 cells; [2]): as strong as those observed for Nec-1s | protection from RIPK1-mediated necroptosis (L929 fibroblasts; 10 ng/ml TNFα + 25 µM zVAD, 24 h, 37°C, equimolar primidone (0.5-1 mM) dissolved in DMSO or PEG300, added 30 min before TNFα): able to protect | protective effects compared with Nec-1s (L929 fibroblasts; [2]): as strong as those observed for Nec-1s

Source: patent publication EP4260858A1, “COMPOSITION COMPRISING PRIMIDONE AND PEG” (Christian-Albrechts-Universität zu Kiel, priority 2022, dated 2023)
